Key:
[1] = Brain levels of DCUKA after intraperitoneal administration; format: in vivo; conditions: over at least 2 hours
Description: While the acid forms of the diarylureido-dihalokynurenic acid compounds are detectable in the brain after intravenous or intraperitoneal injection, “prodrug” versions (e.g., esters) were prepared to enhance transport across the blood-brain barrier. FIG. 6 illustrates the brain levels of DCUKA after administration of DCUKA itself, the DCUK-O-methyl ester and the DCUK-O-ethyl ester. […] Accordingly, ethyl esters of the diarylureido-dihalokynurenate compounds are particularly preferred (e.g., DCUK-OEt).

C57BL/6 mice = test: Elevated-plus maze (anxiolytic effects); format: in vivo, mouse; conditions: i.p., about 60 minutes before testing
Description: In Panel A, mice were administered (i.p.) the indicated doses of DCUK-OEt about 60 minutes before behavioral testing on the elevated-plus maze. The number of times entered and the time spent in the open arms of the plus-maze were recorded. In Panel B, groups of mice were administered (i.p.) 50 mg/kg DCUK-OEt in an injection vehicle (5% TWEEN 80/0.5% methylcellulose) and tested at the indicated times with comparison to mice injected with vehicle alone. In both panels, mice treated with vehicle alone (i.e., absent the DCUKA compound) were tested 60 minutes after injection of vehicle. A greater percent of time spent in the open arms indicates an anxiolytic action of the drug. Significant differences in the percent time spent on the open arms of the maze are evident at doses as low as 25mg/kg. […]
The anxiolytic effect of the DCUK-OMe was tested in C57BL/6 mice with an elevated-plus maze apparatus. […] A trained observer blind to the treatment conditions scored the number of entries into open arms and the number of entries into closed arms over a 5-minutes period. […] The percentage of open arm entries (open arm entries/total arm entries) was calculated for each animal and used as a measure of the anxiolytic/anxiogenic effects of drug treatment. In addition, the total number of entries made into the […] was recorded as a measure of drug effects on locomotor activity. […]

CB1 receptor [2] = biological target: T1, CB1 receptor (Homo sapiens, UniProt P21554); test: cAMP accumulation in HEK293 cells transfected with AC7, D1AR, CB1R; format: cell-based; conditions: dopamine stimulated cAMP
T1 construct: expressed in transfected cells; host or cells: HEK293 cells (ATCC), calcium phosphate transfection
T1 sequence (P21554 whole entry): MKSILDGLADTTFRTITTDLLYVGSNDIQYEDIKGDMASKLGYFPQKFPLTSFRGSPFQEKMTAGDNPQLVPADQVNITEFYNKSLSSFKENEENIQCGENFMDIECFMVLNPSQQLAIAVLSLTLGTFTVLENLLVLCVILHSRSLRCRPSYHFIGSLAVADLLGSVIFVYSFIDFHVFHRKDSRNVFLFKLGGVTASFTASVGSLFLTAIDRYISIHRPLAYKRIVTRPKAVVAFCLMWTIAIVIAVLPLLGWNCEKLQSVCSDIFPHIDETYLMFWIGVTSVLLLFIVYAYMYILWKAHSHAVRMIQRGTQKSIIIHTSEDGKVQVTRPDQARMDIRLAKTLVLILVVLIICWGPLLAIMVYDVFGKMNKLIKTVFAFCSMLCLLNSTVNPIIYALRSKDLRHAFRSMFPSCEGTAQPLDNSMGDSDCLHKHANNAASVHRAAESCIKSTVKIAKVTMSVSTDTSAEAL
Description: HEK293 cells were obtained from American Type Culture Collection (Manassas, Va.). Cells were cultured in 225 mL flasks containing 39 mL of MEM containing 10% fetal bovine serum, penicillin (50 μg/mL), streptomycin (50 μg/mL), and neomycin (100 μg/mL). The flasks were maintained in a humidified atmosphere of 95% air and 5% CO2 at about 37° C. Transfection was performed by the method of DNA precipitation with calcium phosphate 1 day after HEK 293 cells were transferred to small flasks (75 mL) at the density of approximately 60 to 80% confluence. […] Transfection efficiency was routinely monitored by observing the expression of enhanced green fluorescent protein (GFP) by an epifluorescence microscope equipped with a filter set (excitation, 480/40 nm; emission, 535/50 nm) and a dichroic mirror (T89002bs; Chroma Technology, Rockingham, Vt.). […]
To determine the effect of the DCUK-OEt or other compounds on the function of the CB1 receptor, the cells were treated with the phosphodiesterase inhibitor, IBMX (500 μM), for 10 minutes at 37° C., followed by the addition of D1A receptor agonist, dopamine (DA) (1 μM), in the presence of a known CB1 agonist or agonist, plus a CB1 antagonist for 5 minutes. […] ATP and cAMP were separated through Dowex 50 and neutral alumina columns as is known in the art, and quantified by liquid scintillation counting. […]

CB1 receptor [3] = biological target: T1, CB1 receptor; test: cAMP accumulation in HEK293 cells transfected with AC5, D1AR, CB1R; format: cell-based
Description: HEK293 cells were obtained from American Type Culture Collection (Manassas, Va.). Cells were cultured in 225 mL flasks containing 39 mL of MEM containing 10% fetal bovine serum, penicillin (50 μg/mL), streptomycin (50 μg/mL), and neomycin (100 μg/mL). The flasks were maintained in a humidified atmosphere of 95% air and 5% CO2 at about 37° C. Transfection was performed by the method of DNA precipitation with calcium phosphate 1 day after HEK 293 cells were transferred to small flasks (75 mL) at the density of approximately 60 to 80% confluence. Plasmid DNA containing AC5 or AC7 cDNA (11.5 μg), plasmid DNA carrying the human D1A dopamine receptor cDNA (3 μg) and CB1 receptor cDNA (3 μg), and pCMS-EGFP (1 μg) were used for each small flask, which also contained 13 mL of the culture medium. The amount of DNA per flask was adjusted to a total of 26 μg using vector DNA. Transfection efficiency was routinely monitored by observing the expression of enhanced green fluorescent protein (GFP) by an epifluorescence microscope equipped with a filter set (excitation, 480/40 nm; emission, 535/50 nm) and a dichroic mirror (T89002bs; Chroma Technology, Rockingham, Vt.). After transfection, cells were harvested and transferred into 24-well culture plates. The transfected cells were cultured for 1 to 2 days before the cAMP accumulation experiments were carried out.
After labeling and intracellular ATP pool with 3.0 μCi/mL of [2,8-^3H]adenine, cells were incubated in DMEM (0.5 mL/well) without phenol red, buffered to pH 7.1 with 20 mM of 4-(2-hydroxyethyl)-1-piperazineethanesulfonic acid (HEPES) for 30 minutes at 37° C.
To determine the effect of the DCUK-OEt or other compounds on the function of the CB1 receptor, the cells were treated with the phosphodiesterase inhibitor, IBMX (500 μM), for 10 minutes at 37° C., followed by the addition of D1A receptor agonist, dopamine (DA) (1 μM), in the presence of a known CB1 agonist or agonist, plus a CB1 antagonist for 5 minutes. The following agonist and antagonist were used: CB1 receptor agonist, ACEA (10 μM); CB1 receptor antagonist, AM251 (10 μM). In additional reactions, the addition of DA was accompanied by addition of DCUK-OEt (10 μM) or DCUK-OEt together with AM251 (10 μM). In a final set of reactions DCUK-OEt was added with ACEA (10 μM), to assess whether DCUK-OEt acted like a CB1 receptor antagonist. The reactions were terminated by adding 50 μL of 100% (w/v) tricholoroacetic acid. ATP and cAMP were separated through Dowex 50 and neutral alumina columns as is known in the art, and quantified by liquid scintillation counting. [α-^32P]ATP and 8-[^14C]cAMP were added as internal standards to monitor the recovery of ATP and cAMP through column chromatography. Conversion of [^3H] ATP into [^3H]cAMP was calculated as follows: [^3H]cAMP (%)=[^3H]cAMP (cpm)/([^3H]ATP (cpm)+[^3H]cAMP (cpm))·100. [^3H]cAMP (%) values obtained from cells which underwent only the 10-minute IBMX incubation period before the addition of trichloroacetic acid, were used as blanks and these values were subtracted from the values obtained from cells which underwent the 1-minute incubation period with DA in the presence or absence of other agonists/antagonists. Each condition was assayed in triplicate and the whole experimental procedure was repeated 4 times. The ratio of cAMP accumulation was calculated for all treatment groups versus DA treatment group (100%) and the values were averaged among the four batches of experiments.

## CCOC(=O)c1cc(NC(=O)N(c2ccccc2)c2ccccc2)c2c(Cl)cc(Cl)cc2n1 [DCUK-OEt, N,N-diphenyl-4-ureido-5,7-dichloro-2-carboxy quinoline ethyl ester]
[1]
  levels of DCUKA in the brain generated by the ester: significantly improved levels of DCUKA in the brain
C57BL/6 mice
  lowest dose with significant differences in percent time spent on the open arms: 25 mg/kg
CB1 receptor [2]
  functional action at CB1 receptor: acts like an agonist at the CB1 receptor
CB1 receptor [3]; AM251 10 μM
  effect on DA stimulated cAMP production with AM251 added: reversed by AM251
CB1 receptor [3]; added with ACEA 10 μM
  reversal of the effects of ACEA: did not reverse the effects of ACEA
CB1 receptor [3]; dopamine 1 μM, compound 10 μM
  effect on DA stimulated cAMP production: reduced DA stimulated cAMP production

Source: patent US20110184018A1, “METHOD FOR TREATING PERIPHERAL NEUROPATHIC PAIN” (LOHOCLA RESEARCH CORPORATION, priority 2005, published 2011)
